Laboratory results from US20220153780A1, “SALT FORMS OF S-(N, N-DIETHYLCARBAMOYL)GLUTATHIONE” (Tonix Pharma Holdings Limited, priority 2019, published 2022).

Assays:
[1] = system: alcohol-preferring rats (P rats); experiment: 2-hour ethanol intake by adult male P rats after IP carbamathione; type: in vivo
Protocol: The efficacy of carbamathione in reducing ethanol intake of rats was assessed. Adult male alcohol-preferring rats (P rats) and high alcohol-drinking-1 (HAD1) rats (˜75 days of age at the start) were used in this study. These rats underwent an 8-week acquisition/acclimation period of concurrent free-choice access to 15% and 30% ethanol. Animals were initiated with 24-hour access, which was titrated down to 2 hours per day for 5 days (Monday-Friday)/week access. Ethanol access began at the beginning of the dark cycle (10:00 h) in a room maintained on a reverse dark-light cycle (10:00 h to 22:00 h lights out).
After the acquisition period, the animals underwent three weeks of testing. Four doses were tested: 0, 100, 200, and 400 mg/kg/day. Sterile isotonic (0.9% normal) saline with 0.25% Tween® 80 was used as the vehicle for all doses. Injection solutions were prepared approximately 1 hour prior to each administration.
The carbamathione solution was maintained at −20° C. until mixing the solutions each day. Adding the carboxyl-associated compound helped dissolve the carbamathione solid, which was pulverized by mortar and pestle with 50 μl Tween® 80, resulting in a pH of 3.5. […] Doses were calculated at 3 ml/kg to allow for injection volume of 1.5 ml per 500 g rat. […]
Data were analyzed by Dose, by Test Day, and 2-way mixed ANOVAs on each rat line, followed by Dunnett t-test planned comparisons.

[2] = system: C57BL/6J mice; experiment: Voluntary ethanol intake in chronic intermittent ethanol (CIE) exposed and air-exposed (CTL) mice, limited access drinking; type: in vivo; settings: for weekly average ethanol intake vs vehicle: nondependent (CTL) mice; for ethanol intake as percent change from vehicle group: Test cycles 5 and 7
Protocol: Following the established protocol, adult male C57BL/6J mice (N=96) were trained to drink ethanol in a limited access (2 hour/day) free-choice (15% v/v ethanol vs. water) drinking procedure. After four weeks, stable baseline level of intake was established, and mice were separated into two groups. One group of mice (CIE group) was exposed to chronic intermittent ethanol (CIE) vapor exposure in inhalation chambers (16 hour/days x 4 days). The remaining mice (CTL group) were treated similarly but exposed to air in inhalation chambers. After a 72 hour forced abstinence period, all mice resumed ethanol drinking in the same limited access paradigm for a 5-day test period. This pattern of weekly CIE (or air) exposure cycles with intervening weekly test drinking cycles was repeated for seven cycles following procedures previously published (Becker and Lopez, 2004; Griffin et al., 2009; Lopez and Becker, 2005).
All mice received intraperitoneal (IP) administration of saline 30 min prior to the start of daily drinking sessions during baseline and the early test cycles to acclimate the animals to the handling procedure. After the fourth ethanol intake test cycle, mice were further divided into carbamathione dose treatment conditions (N=10-12/group).
After Test 4, CIE and CTL mice were separated in dose groups for Test 5 (N=11-12/group), with the groups equated for intake during Test 4. Mice received intraperitoneal (IP) injections of carbamathione (100, 200 or 400 mg/kg) or vehicle (0.25% carboxymethyl cellulose, CMC in water) 30 min before drinking. The carbamathione IP injections were administered as a suspension. Ethanol intake during Test 5 was averaged for the week and analyzed by ANOVA, with Group (CTL, CIE) and carbamathione dose (0, 100, 200, 400 mg/kg) as between-subject factors. ANOVA indicated a significant main effect of Group [F(1,78)=53.33; p<0.0001], reflecting a higher level of ethanol intake in CIE mice compared to CTL mice (* in FIG. 4).
The efficacy of carbamathione in reducing ethanol intake in mice was next compared to the efficacy of disulfiram, an FDA approved drug used in the treatment of chronic alcoholism. The mice were exposed to a sixth cycle of CIE (or air) and evaluated for intake with the same procedure used in the previous test cycle, except that disulfiram was included as a comparator drug. Mice that received vehicle or 400 mg/kg carbamathione continued with this treatment schedule. Mice that received 100 or 200 mg/kg carbamathione were combined and randomly redistributed to receive 75 or 100 mg/kg disulfiram during the first two days and these doses were increased to 125 and 150 mg/kg disulfiram, respectively for the last three days of Test 6. Disulfiram doses were prepared with the same vehicle used for carbamathione (i.e., 0.25% CMC). Separate analyses were conducted to evaluate the effect of carbamathione and disulfiram treatment. Data presented in FIG. 5 show the weekly average intake for CIE and CTL mice that received vehicle or carbamathione. […] Data for mice that received vehicle, 75, or 100 mg/kg of disulfiram were averaged over the first two days of the week. […]
Mice were evaluated again for voluntary ethanol intake after a seventh and final CIE or air exposure cycle. During the five days of Test 7, mice that received vehicle injections from the start of the study continued to receive vehicle injections. Mice that received carbamathione and disulfiram in Test cycles 5 and 6 received vehicle injections in Test 7 to evaluate any long-lasting effect of previous treatment (drug washout evaluation). Finally, mice that received 400 mg/kg carbamathione continued treatment with a higher dose of carbamathione (600 mg/kg). Analysis of the groups that received vehicle injections during Test 7 was performed with Group (CIE, CTL) and previous treatment (vehicle, low, or high disulfiram dose) as main factors. This analysis indicated a significant main effect of Group [F(1,59)=25.36; p<0.0001]. […] (data not shown). […]

Q: How did the “effect on 2-hour ethanol intake” value ([1]; IP 100, 200, 400 mg/kg, saline with 0.25% Tween 80 vehicle) turn out when `CCN(CC)C(=O)SCC(NC(=O)CCC(N)C(=O)O)C(=O)NCC(=O)O` (stereo not shown) [carbamathione, S—(N,N-diethylcarbamoyl)glutathione] was run?
A: Its value is “modest positive effect”.

Q: What about the “2 h ethanol intake, Dunnett's t-test for main effect of dose” value ([1]; highest dose (400 mg/kg/day IP)) of the same molecule?
A: The value was “significant effect”.

Q: And the “reduction in ethanol intake, CTL mice compared to CIE-exposed mice” value ([2]; 200, 400 and 600 mg/kg, percent change from vehicle)?
A: The value was “significantly larger reduction in ethanol intake”.

Q: What about the “weekly average ethanol intake vs vehicle and 100 mg/kg” value ([2]; Test 5, 400 mg/kg IP in 0.25% CMC, 30 min before drinking, CIE and CTL mice together) of the same molecule?
A: The value was “significantly lower ethanol intake”.

Q: What about the “weekly average ethanol intake vs vehicle” value ([2]; Test 5, 200 mg/kg IP) of the same molecule?
A: The value was “significantly reduced ethanol intake”.

Q: And the “weekly average ethanol intake vs vehicle” value ([2]; Test 5, 400 mg/kg IP)?
A: The value was “significantly reduced ethanol intake”.

Q: And the “weekly average ethanol intake vs vehicle, pair-wise comparison” value ([2]; Test 6, 400 mg/kg IP, p=0.07)?
A: Its value is “trend for lower ethanol intake”.

Q: And the “ethanol intake vs vehicle” value ([2]; Test 7, 600 mg/kg IP, CIE and CTL groups, 600 mg/kg)?
A: Its value is “significantly reduce ethanol intake”.

Q: And the “ethanol intake as percent change from vehicle group” value ([2]; CIE mice, 600 mg/kg (only the highest dose))?
A: The value was “significant decrease in ethanol intake”.

Q: And the “ethanol intake as percent change from vehicle group” value ([2]; CTL mice, 200, 400 and 600 mg/kg)?
A: Its value is “significant reduction in voluntary ethanol intake”.
